According to the CheMixHub viscosity set:

Experiment: xn = mol fraction of the nth substance listed

Clc1cccc2ccccc12 + Cc1ccccc1
viscosity [mPa·s], 101.33 kPa
Conditions | x1 = 0.0995 | x1 = 0.1995 | x1 = 0.3037 | x1 = 0.3973 | x1 = 0.4962 | x1 = 0.597 | x1 = 0.6945 | x1 = 0.7972 | x1 = 0.8918
298.15 K | 0.596 | 0.711 | 0.838 | 0.979 | 1.16 | 1.357 | 1.614 | 1.941 | 2.321
303.15 K | 0.561 | 0.665 | 0.788 | 0.91 | 1.074 | 1.249 | 1.484 | 1.764 | 2.091
308.15 K | 0.529 | 0.626 | 0.727 | 0.849 | 0.995 | 1.153 | 1.361 | 1.616 | 1.88

Clc1ccccc1 + Cc1ccccc1C
101 kPa
Conditions | viscosity [mPa·s]
293.15 K, x1 = 0.1217 | 0.755
293.15 K, x1 = 0.2237 | 0.76
293.15 K, x1 = 0.4305 | 0.759
293.15 K, x1 = 0.5325 | 0.753
293.15 K, x1 = 0.6305 | 0.76
293.15 K, x1 = 0.7288 | 0.755
293.15 K, x1 = 0.8295 | 0.756
293.15 K, x1 = 0.9051 | 0.75
298.15 K, x1 = 0.1005 | 0.712
298.15 K, x1 = 0.2307 | 0.708
298.15 K, x1 = 0.3108 | 0.704
298.15 K, x1 = 0.4337 | 0.706
298.15 K, x1 = 0.5454 | 0.705
298.15 K, x1 = 0.6079 | 0.705
298.15 K, x1 = 0.7762 | 0.706
298.15 K, x1 = 0.8807 | 0.705
303.15 K, x1 = 0.1214 | 0.66
303.15 K, x1 = 0.2389 | 0.666
303.15 K, x1 = 0.3117 | 0.653
303.15 K, x1 = 0.4128 | 0.657
303.15 K, x1 = 0.5674 | 0.653
303.15 K, x1 = 0.6882 | 0.661
303.15 K, x1 = 0.7891 | 0.661
303.15 K, x1 = 0.9156 | 0.66

COCCOCCOCCOCCOC + ClC(Cl)(Cl)Cl
298.15 K, 101 kPa
Conditions | viscosity [mPa·s]
x1 = 0.0127 | 0.966
x1 = 0.0282 | 1.01
x1 = 0.0629 | 1.122
x1 = 0.1168 | 1.311
x1 = 0.1932 | 1.562
x1 = 0.2437 | 1.723
x1 = 0.2943 | 1.888
x1 = 0.3592 | 2.081
x1 = 0.3669 | 2.102
x1 = 0.4164 | 2.242
x1 = 0.4414 | 2.319
x1 = 0.511 | 2.487
x1 = 0.5854 | 2.656
x1 = 0.6215 | 2.732
x1 = 0.6944 | 2.874
x1 = 0.7318 | 2.94
x1 = 0.7968 | 3.067
x1 = 0.8566 | 3.16
x2 = 0.0114 | 3.287
